Data on five compounds can be found in ChEMBL document CHEMBL1649198, “Efflux unbalance in Pseudomonas aeruginosa isolates from cystic fibrosis patients” (2009).

Values after ≈ are worked out from the molar mass of the structure shown.

Test [1] relates to Pseudomonas aeruginosa. Briefly: Antimicrobial activity against Pseudomonas aeruginosa isolate 615S obtained from cystic fibrosis patient by disk diffusion method. It is filed as functional. (In agar diffusion tests the substance spreads into inoculated agar from a disc or well.)
The subject of test [2] is Pseudomonas aeruginosa. The test can be described thus: Antimicrobial activity against Pseudomonas aeruginosa isolate 3066 obtained from cystic fibrosis patient by disk diffusion method. Format: functional.
Test [3] deals with Pseudomonas aeruginosa. The test can be described thus: Antimicrobial activity against Pseudomonas aeruginosa isolate 615R obtained from cystic fibrosis patient by disk diffusion method. Format: functional.
In test [4] the test system is Pseudomonas aeruginosa. Briefly: Antimicrobial activity against Pseudomonas aeruginosa isolate 2729 obtained from cystic fibrosis patient by disk diffusion method. Format: functional.
Test [5] concerns Pseudomonas aeruginosa. Briefly: Antimicrobial activity against Pseudomonas aeruginosa isolate 2998 obtained from cystic fibrosis patient by agar dilution method. For orientation: Agar dilution tests growth on a series of plates holding different concentrations.
In test [6] the test system is Pseudomonas aeruginosa. Briefly: Antimicrobial activity against Pseudomonas aeruginosa isolate 2715 obtained from cystic fibrosis patient by agar dilution method.
Test [7] relates to Pseudomonas aeruginosa. Briefly: Antimicrobial activity against ampicillin- and ticarcillin-resistant Pseudomonas aeruginosa FE60 mutant transformed with pAGH97 carrying mexXY F1018L mutant by twofold macrodilution method. Format: functional.
The test system of test [8] is Pseudomonas aeruginosa. The test can be described thus: Antimicrobial activity against Pseudomonas aeruginosa isolate 2804 obtained from cystic fibrosis patient by disk diffusion method. Format: functional.
Test [9] deals with Pseudomonas aeruginosa. The test can be described thus: Antimicrobial activity against Pseudomonas aeruginosa isolate 2721 obtained from cystic fibrosis patient by agar dilution method.
For test [10], the system named is Pseudomonas aeruginosa. The test can be described thus: Antimicrobial activity against mexXY operon inactivated Pseudomonas aeruginosa PAO1 by twofold macrodilution method. It is filed as functional.
Test [11] deals with Pseudomonas aeruginosa. The test can be described thus: Antimicrobial activity against Pseudomonas aeruginosa isolate 2716 obtained from cystic fibrosis patient by agar dilution method.
Test [12] deals with Pseudomonas aeruginosa. The test can be described thus: Antimicrobial activity against Pseudomonas aeruginosa PAO1 by twofold macrodilution method. It is filed as functional.
The test system of test [13] is Pseudomonas aeruginosa. Briefly: Antimicrobial activity against mexB gene inactivated Pseudomonas aeruginosa isolate 3020S obtained from cystic fibrosis patient by agar dilution method.
Test [14] concerns Pseudomonas aeruginosa. Briefly: Antimicrobial activity against Pseudomonas aeruginosa isolate 615R with inactivated mexB gene obtained from cystic fibrosis patient by disk diffusion method.
In test [15] the test system is Pseudomonas aeruginosa. Briefly: Ratio of MIC for mexB deficient Pseudomonas aeruginosa FB1 mutant to Pseudomonas aeruginosa PAO1. It is filed as functional.
In test [16] the test system is Pseudomonas aeruginosa. The test can be described thus: Antimicrobial activity against Pseudomonas aeruginosa isolate 2858 obtained from cystic fibrosis patient by disk diffusion method. Format: functional.
Test [17] concerns Pseudomonas aeruginosa. Briefly: Antimicrobial activity against Pseudomonas aeruginosa isolate 3020S obtained from cystic fibrosis patient by disk diffusion method. Format: functional.
Test [18] concerns Pseudomonas aeruginosa. Briefly: Antimicrobial activity against Pseudomonas aeruginosa isolate 2998 obtained from cystic fibrosis patient.
Test [19] deals with Pseudomonas aeruginosa. Briefly: Antimicrobial activity against Pseudomonas aeruginosa isolate 3066 obtained from cystic fibrosis patient.
In test [20] the test system is Pseudomonas aeruginosa. The test can be described thus: Antimicrobial activity against mexB gene inactivated Pseudomonas aeruginosa isolate 2715 obtained from cystic fibrosis patient by agar dilution method.
Test [21] relates to Pseudomonas aeruginosa. The test can be described thus: Antimicrobial activity against Pseudomonas aeruginosa isolate 2729 obtained from cystic fibrosis patient.
Test [22] deals with Pseudomonas aeruginosa. The test can be described thus: Antimicrobial activity against mexB gene inactivated Pseudomonas aeruginosa isolate 2716 obtained from cystic fibrosis patient by agar dilution method.
In test [23] the test system is Pseudomonas aeruginosa. Briefly: Antimicrobial activity against mexB gene inactivated Pseudomonas aeruginosa isolate 2721 obtained from cystic fibrosis patient by agar dilution method.
Test [24] relates to Pseudomonas aeruginosa. The test can be described thus: Antimicrobial activity against Pseudomonas aeruginosa isolate 2933 obtained from cystic fibrosis patient by disk diffusion method. Format: functional.
Test [25] has as its system Pseudomonas aeruginosa. Briefly: Antimicrobial activity against Pseudomonas aeruginosa isolate 2933 obtained from cystic fibrosis patient.
Test [26] relates to Pseudomonas aeruginosa. Briefly: Antimicrobial activity against Pseudomonas aeruginosa isolate 3020R obtained from cystic fibrosis patient by agar dilution method.
Test [27] concerns Pseudomonas aeruginosa. Briefly: Antimicrobial activity against mexB gene inactivated Pseudomonas aeruginosa isolate 3020R obtained from cystic fibrosis patient by agar dilution method.
Test [28] deals with Pseudomonas aeruginosa. The test can be described thus: Antimicrobial activity against Pseudomonas aeruginosa mutGR1 overexpressing mexXY mutant by twofold macrodilution method. It is filed as functional.
Test [29] has as its system Pseudomonas aeruginosa. Briefly: Antimicrobial activity against ampicillin- and ticarcillin-resistant Pseudomonas aeruginosa FE60 mutant transformed with pAGH97 carrying mexXY F29S mutant by twofold macrodilution method. It is filed as functional.
Test [30] relates to Pseudomonas aeruginosa. The test can be described thus: Antimicrobial activity against mexXY deficient ampicillin- and ticarcillin-resistant Pseudomonas aeruginosa FE60 mutant by twofold macrodilution method. It is filed as functional.
Test [31] concerns Pseudomonas aeruginosa. The test can be described thus: Antimicrobial activity against ampicillin- and ticarcillin-resistant Pseudomonas aeruginosa FE60 mutant transformed with pAGH97 carrying mexXY operon by twofold macrodilution method. Format: functional.
For test [32], the system named is Pseudomonas aeruginosa. The test can be described thus: Antimicrobial activity against mexXY operon inactivated Pseudomonas aeruginosa isolate 615S obtained from cystic fibrosis patient by disk diffusion method. Format: functional, organism-based.
The subject of test [33] is Pseudomonas aeruginosa. Briefly: Antimicrobial activity against mexXY operon inactivated Pseudomonas aeruginosa isolate 2858 obtained from cystic fibrosis patient by disk diffusion method. It is filed as functional, organism-based.

For the compound `O=C(O)c1cn(C2CC2)c2cc(N3CCNCC3)c(F)cc2c1=O` [CIPROFLOXACIN], the MIC in test [1] turned out to be 4 µg/mL (≈ 12.1 µM); in test [2], 16 µg/mL (≈ 48.3 µM); in test [3], 1 µg/mL (≈ 3.02 µM); in test [4] it was 1 µg/mL (≈ 3.02 µM); in [5] it was 1 µg/mL (≈ 3.02 µM); in [6], 1 µg/mL (≈ 3.02 µM). Also, the MIC in test [7] worked out at 1 µg/mL (≈ 3.02 µM); in test [8], 16 µg/mL (≈ 48.3 µM); in test [9], 1 µg/mL (≈ 3.02 µM).

Consider `CO[C@@H]1[C@@H](OC(N)=O)[C@@H](O)[C@H](Oc2ccc3c(O)c(NC(=O)c4ccc(O)c(CC=C(C)C)c4)c(=O)oc3c2C)OC1(C)C` [NOVOBIOCIN], for which the MIC in test [10] was 32 µg/mL (≈ 52.2 µM); in test [11], 32 µg/mL (≈ 52.2 µM); in test [12], 512 µg/mL (≈ 836 µM); in test [13], 8 µg/mL (≈ 13.1 µM); in test [1], 64 µg/mL (≈ 104 µM); in test [14], 4 µg/mL (≈ 6.53 µM). Further, the MIC in test [16] was determined as 64 µg/mL (≈ 104 µM); in test [17], 512 µg/mL (≈ 836 µM); in [2] it was 32 µg/mL (≈ 52.2 µM); in test [18], 32 µg/mL (≈ 52.2 µM); in test [19], 32 µg/mL (≈ 52.2 µM); in test [20], 8 µg/mL (≈ 13.1 µM). Also, the MIC in [3] was found to be 4 µg/mL (≈ 6.53 µM); in test [4] it was 32 µg/mL (≈ 52.2 µM); in test [21], 32 µg/mL (≈ 52.2 µM); in test [22], 32 µg/mL (≈ 52.2 µM); in [23], 32 µg/mL (≈ 52.2 µM); in [24], 8 µg/mL (≈ 13.1 µM). Also, the MIC in [5] was found to be 32 µg/mL (≈ 52.2 µM); in test [25], 4 µg/mL (≈ 6.53 µM); in test [6], 16 µg/mL (≈ 26.1 µM); in [26] it was 16 µg/mL (≈ 26.1 µM); in [8], 8 µg/mL (≈ 13.1 µM); in [27] it was 16 µg/mL (≈ 26.1 µM). Further, the figures for the MIC in [28] and in test [9] were 512 µg/mL (≈ 836 µM) and 32 µg/mL (≈ 52.2 µM), respectively. In addition, the “fold change (FC)” value in test [15] is 16.

Consider `CC1(C)S[C@@H]2[C@H](NC(=O)[C@H](C(=O)O)c3ccsc3)C(=O)N2[C@H]1C(=O)O` [TICARCILLIN], for which the MIC in test [11] came out at 2 µg/mL (≈ 5.2 µM); in test [12] it was 32 µg/mL (≈ 83.2 µM); in test [1], 1 µg/mL (≈ 2.6 µM); in [16], 2 µg/mL (≈ 5.2 µM); in test [17], 16 µg/mL (≈ 41.6 µM); in [2] it was 2 µg/mL (≈ 5.2 µM). Besides, the minimum inhibitory concentration (MIC) in [3] is 2 µg/mL (≈ 5.2 µM); in test [4], 0.5 µg/mL (≈ 1.3 µM); in test [24] it was 0.5 µg/mL (≈ 1.3 µM); in [5] it was 0.5 µg/mL (≈ 1.3 µM); in [6], 2 µg/mL (≈ 5.2 µM); in test [26], 2 µg/mL (≈ 5.2 µM). Also, the MIC in test [8] came to 0.5 µg/mL (≈ 1.3 µM); in [28] it was 32 µg/mL (≈ 83.2 µM); in test [9] it was 2 µg/mL (≈ 5.2 µM). Further, the “fold change (FC)” value in [15] is listed as 64.

Take `NC[C@H]1O[C@H](O[C@H]2[C@H](O)[C@@H](O[C@H]3O[C@H](CO)[C@@H](O)[C@H](N)[C@H]3O)[C@H](N)C[C@@H]2N)[C@H](N)C[C@@H]1O` [TOBRAMYCIN]: the MIC in test [11] was determined as 1 µg/mL (≈ 2.14 µM); in [12] it was 0.5 µg/mL (≈ 1.07 µM); in test [1], 0.25 µg/mL (≈ 0.535 µM); in test [29], 0.5 µg/mL (≈ 1.07 µM); in test [16], 1 µg/mL (≈ 2.14 µM); in [17], 0.5 µg/mL (≈ 1.07 µM). Besides, the MIC in test [2] turned out to be 16 µg/mL (≈ 34.2 µM); in [3], 2 µg/mL (≈ 4.28 µM); in test [4], 2 µg/mL (≈ 4.28 µM); in test [30], 0.06 µg/mL (≈ 0.128 µM); in test [24] it was 4 µg/mL (≈ 8.56 µM); in test [5], 4 µg/mL (≈ 8.56 µM). For the same compound, the MIC in [31] was found to be 0.5 µg/mL (≈ 1.07 µM); in test [6], 2 µg/mL (≈ 4.28 µM); in test [26], 4 µg/mL (≈ 8.56 µM); in [7] it was 1 µg/mL (≈ 2.14 µM); in test [8], 64 µg/mL (≈ 137 µM); in [28] it was 1 µg/mL (≈ 2.14 µM). Further, the MIC in [9] was 4 µg/mL (≈ 8.56 µM).

As for GENTAMICIN, the minimum inhibitory concentration (MIC) in test [10] came out at 0.125 µg/mL; in test [12], 1 µg/mL; in test [1], 1 µg/mL; in test [29], 1 µg/mL; in [16] it was 4 µg/mL; in test [17] it was 2 µg/mL. The MIC in [2] came out at 64 µg/mL; in test [32], 0.125 µg/mL; in [33], 0.125 µg/mL; in [3] it was 8 µg/mL; in [4], 8 µg/mL; in test [30] it was 0.125 µg/mL. For the same compound, the MIC in test [24] amounted to 16 µg/mL; in [31], 1 µg/mL; in test [7] it was 2 µg/mL; in test [8], 64 µg/mL; in test [28], 2 µg/mL.

Usually MIC stands for the lowest concentration found to suppress growth. Low values mean inhibition by little substance, high ones a need for much substance.
